The source of these data is patent US8173378B2, “Methods of using an alpha-1-adrenergic receptor having altered ligand affinity” (Pharmacome LLC, priority 2007, dated 2012).

The term Ki denotes the dissociation constant of the complex between target and ligand, obtained from inhibition or displacement. The low end stands for higher affinity, the high end for lower affinity.

Bounds are passed on as bounds.

The target in assay [1] is T1, α1L-adrenergic receptors in human prostate tissue segments (Homo sapiens, UniProt P35348).
T1 construct: from tissue; host or cells: human prostate tissue segments
T1 sequence (P35348 1-466): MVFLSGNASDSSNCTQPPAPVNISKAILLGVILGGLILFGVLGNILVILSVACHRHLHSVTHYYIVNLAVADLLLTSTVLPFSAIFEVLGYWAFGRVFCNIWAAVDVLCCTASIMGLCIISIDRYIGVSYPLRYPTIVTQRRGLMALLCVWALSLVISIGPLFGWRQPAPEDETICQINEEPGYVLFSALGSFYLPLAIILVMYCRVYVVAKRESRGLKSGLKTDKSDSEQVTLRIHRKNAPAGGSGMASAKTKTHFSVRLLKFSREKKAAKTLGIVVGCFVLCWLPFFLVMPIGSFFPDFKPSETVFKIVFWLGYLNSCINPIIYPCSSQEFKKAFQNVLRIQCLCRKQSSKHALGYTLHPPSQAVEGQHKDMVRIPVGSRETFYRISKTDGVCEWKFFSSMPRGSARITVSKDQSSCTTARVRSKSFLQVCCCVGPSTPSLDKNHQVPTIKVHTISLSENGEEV
Briefly: [3H]-silodosin binding in human prostate tissue segments.

The target of assay [2] is T2, α1A-adrenergic receptor in α1A cells (Homo sapiens, UniProt P35348).
T2 construct: the coding region of the ADRA1A gene was subcloned into the EcoRI restriction enzyme site of the multicloning site A of the pIRES; expressed in transfected cells
T2 sequence (P35348 1-466): T1 sequence (P35348 1-466)
Briefly: Whole-cell [3H]-silodosin binding in α1A cells (CHO-K1 expressing only ADRA1A). On the procedure:
(§1) The vector was amplified/purified in a conventional method, and then transfected into CHO-K1 cells, which are cells of Chinese Hamster ovarian origin, with Lipofectamine 2000 (Invitrogen Corporation) according to the manufacturer's protocol. Two days after the transfection, 1200 μg/ml of the antibiotic Geneticin (G418) were added to the DMEM culture medium. […] The G418-resistant cells were diluted, suspended, and injected dividedly into a 96-well plate so that an average of 0.5 cells was put in per well, and a single colony was chosen. This operation was repeated three times, whereby a stable clone (au cells) having coexpressed the ADRA1A gene and the CREDL1α gene was produced. Further, as control groups, the cells (α1A cells) having stably expressed only the ADRA1A gene and the cells (CREDL1α cells) having stably expressed only the CREDL1α gene were produced.
The stable clone was studied by a pharmacological binding method with [^3H]-silodosin, which is a radioligand. An experiment was conducted using a whole-cell binding method. […] Thereafter, the cells were filtered/washed by a Whatmann GC/F filter pretreated with polyethylene imine, and the radioactivity was measured by a liquid scintillation counter. The non-specific binding was evaluated as binding in the presence of 30 μM phenotolamine. […]

Assay [3] deals with T3, α1L-adrenergic receptor (α1A-adrenergic receptor / CRELD1α complex) in α1L cells (Homo sapiens, UniProt P35348).
T3 construct: the coding region of the ADRA1A gene was subcloned into the EcoRI restriction enzyme site of the multicloning site A of the pIRES; expressed in transfected cells
T3 sequence (P35348 1-466): T1 sequence (P35348 1-466)
T3 sequence (Q96HD1 30-420 partner): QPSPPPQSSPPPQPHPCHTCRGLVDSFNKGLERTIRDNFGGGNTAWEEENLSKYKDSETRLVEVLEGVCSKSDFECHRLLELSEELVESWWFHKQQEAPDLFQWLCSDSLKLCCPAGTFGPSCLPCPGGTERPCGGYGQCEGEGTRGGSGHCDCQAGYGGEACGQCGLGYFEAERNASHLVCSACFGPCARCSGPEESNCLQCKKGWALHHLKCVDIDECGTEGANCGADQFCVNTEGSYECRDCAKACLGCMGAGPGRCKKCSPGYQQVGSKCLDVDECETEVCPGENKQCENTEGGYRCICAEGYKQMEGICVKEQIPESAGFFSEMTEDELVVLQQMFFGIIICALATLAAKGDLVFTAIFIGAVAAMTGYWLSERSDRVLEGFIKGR
As to the kind of experiment: Whole-cell [3H]-silodosin binding in α1L cells (CHO-K1 coexpressing ADRA1A and CRELD1α). As to conditions: for sensitivity of receptors in α1L cells (in words): whole-cell competition binding. The procedure: as §1
The stable clone was studied by a pharmacological binding method with [^3H]-silodosin, which is a radioligand. An experiment was conducted using a whole-cell binding method. That is, cells were scattered two to three days before the experiment so that they are semi-confluent, washed twice with ice-cold PBS, and then scraped by a scraper. The cells thus collected were suspended again in a Krebs-HEPES solution, and then incubated at 4° C. for four hours together with [^3H]-silodosin and another drug as needed. Thereafter, the cells were filtered/washed by a Whatmann GC/F filter pretreated with polyethylene imine, and the radioactivity was measured by a liquid scintillation counter. The non-specific binding was evaluated as binding in the presence of 30 μM phenotolamine.
The binding of [^3H]-silodosin of various concentrations (30 to 1000 pM) to the α1L cells was examined (FIG. 1).
Silodosin is known to bind selectively to the α1A- and α1L-subtypes with a high affinity. […] The α1A cells were used as control cell line. [^3H]-silodosin is known as a selective antagonist of α1A- and α1L-subtypes both.

The target in another assay is T4, α1B-adrenergic receptor (Homo sapiens, UniProt P35368).
T4 sequence (P35368 1-520): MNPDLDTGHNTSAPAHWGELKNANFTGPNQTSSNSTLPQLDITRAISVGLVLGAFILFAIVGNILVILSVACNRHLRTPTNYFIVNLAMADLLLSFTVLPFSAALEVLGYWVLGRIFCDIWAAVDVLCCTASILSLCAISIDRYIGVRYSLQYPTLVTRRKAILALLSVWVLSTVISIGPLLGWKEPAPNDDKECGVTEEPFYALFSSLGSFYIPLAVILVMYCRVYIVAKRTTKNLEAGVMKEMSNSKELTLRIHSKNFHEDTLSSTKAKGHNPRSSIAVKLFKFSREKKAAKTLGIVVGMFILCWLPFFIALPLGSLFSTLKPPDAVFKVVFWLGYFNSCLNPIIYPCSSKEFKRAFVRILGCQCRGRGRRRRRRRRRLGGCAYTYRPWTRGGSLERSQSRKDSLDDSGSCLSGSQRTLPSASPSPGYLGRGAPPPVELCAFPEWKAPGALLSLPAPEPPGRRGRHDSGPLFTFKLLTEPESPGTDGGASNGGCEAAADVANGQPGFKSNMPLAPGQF
As to conditions: α1B subtype; cited from earlier work.

In another assay the target is α1L-adrenergic receptor. As to conditions: α1L subtype; cited from earlier work.
The next assay concerns the target T5, α1A-adrenergic receptor (Homo sapiens, UniProt P35348).
T5 sequence (P35348 1-466): T1 sequence (P35348 1-466)
To be noted: α1A subtype; cited from earlier work.

The target in the next assay is T6, α1D-adrenergic receptor (Homo sapiens, UniProt P25100).
T6 sequence (P25100 1-572): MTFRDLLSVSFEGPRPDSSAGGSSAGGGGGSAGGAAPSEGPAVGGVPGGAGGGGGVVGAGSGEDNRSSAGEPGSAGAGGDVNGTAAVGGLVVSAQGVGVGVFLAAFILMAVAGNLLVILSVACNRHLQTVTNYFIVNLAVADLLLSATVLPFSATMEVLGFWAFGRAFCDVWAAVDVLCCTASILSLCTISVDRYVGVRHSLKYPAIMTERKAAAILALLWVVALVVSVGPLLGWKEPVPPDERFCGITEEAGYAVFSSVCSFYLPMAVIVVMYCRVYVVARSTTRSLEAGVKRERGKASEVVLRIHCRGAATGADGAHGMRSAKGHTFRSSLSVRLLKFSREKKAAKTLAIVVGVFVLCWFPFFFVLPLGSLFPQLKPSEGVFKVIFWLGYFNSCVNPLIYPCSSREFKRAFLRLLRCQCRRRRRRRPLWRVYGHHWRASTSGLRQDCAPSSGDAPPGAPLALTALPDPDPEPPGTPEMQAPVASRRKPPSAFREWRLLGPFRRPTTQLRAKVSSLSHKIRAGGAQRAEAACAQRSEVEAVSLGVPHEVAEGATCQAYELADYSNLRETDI
To be noted: α1D subtype; cited from earlier work.

As for `C[C@H](Cc1cc2c(c(C(N)=O)c1)N(CCCO)CC2)NCCOc1ccccc1OCC(F)(F)F` [[^3H]-silodosin], the Kd is 0.316 nM in assay [1] (human prostate tissue segments, read-out: pKD (dissociation equilibrium constant from saturation binding curve) (converted)); 0.2 nM in assay [2] (α1A cells, whole-cell method, read-out: pKD (dissociation equilibrium constant from saturation binding curve) (converted)); 0.843 nM in assay [3] (α1L cells, saturation binding, whole-cell method). Besides, the “maximum binding amount (Bmax)” value in assay [3] (α1L cells, saturation binding, 30 to 1000 pM) turned out to be 134 fmol/mg protein.

Turning to `COc1ccccc1N1CCN(CCN2C(=O)CC3(CCCC3)CC2=O)CC1.Cl.Cl` [BMY 7378, 8-[2-[4-(2-methoxyphenyl)-1-piperazinyl]ethyl]8-azaspiro[4,5]decane7,9-dione dihydrochloride], the “sensitivity of receptors in α1L cells (in words)” value (from here on “sensitivity of receptors”) in assay [3] (α1L cells) is reported as “only low sensitivity”. Besides, the “Affinity (pKb)” value at α1B-adrenergic receptor was 7.4.

Consider `CC(C)(Cc1c[nH]c2ccc(Cl)cc12)NCCOc1ccccc1OCC1CC1.Cl` [RS-17053, N-[2-(2-cyclopropylmethoxyphenoxy)ethyl]-5-chloro-α,α-dimethyl-1H-indole-3-ethanamine hydrochloride], for which the “Affinity (pKb)” value on α1L-adrenergic receptor is on record as 6.3; on α1A-adrenergic receptor, 9.1-8.4; at α1D-adrenergic receptor it was 7.8; at α1B-adrenergic receptor it was 7.8. Besides, the figures for the Ki in assay [1], in assay [2] and in assay [3] were 251 nM, 1.58 nM and above 1000 nM, respectively. The “sensitivity of receptors” value in assay [3] (α1L cells) is on record as “low in sensitivity”.

As to `C[C@H](Cc1cc2c(c(C(N)=O)c1)N(CCCO)CC2)NCCOc1ccccc1OCC(F)(F)F` [silodosin], the “Affinity (pKb)” value at α1L-adrenergic receptor is recorded as 10.7-9.5; at α1A-adrenergic receptor it was 10.7-9.5; at α1D-adrenergic receptor, 8.6; at α1B-adrenergic receptor, 8.1.

`CCOc1ccccc1OCCN[C@H](C)Cc1ccc(OC)c(S(N)(=O)=O)c1` [tamsulosin]: the “sensitivity of receptors” value in assay [3] (α1L cells) was “high sensitivity”. Also, the “Affinity (pKb)” value at α1D-adrenergic receptor is given as 9.9; on α1B-adrenergic receptor, 9.3.
